The text below walks through data of US10689404B1, “Preparation method of tetraboronic acid compounds, and tetraboronic acid compounds” (Tamkang University, priority 2019, dated 2020).

Holding throughout (assay type): cell-based
Assay [1] relates to osteosarcoma cell U2OS. The assay is described as follows: Fluorescence microscopy with DAHMI sensor: entry of the tetraboronic acid compound into the cell nucleus. The following applies: osteosarcoma cells, compound acting 24 hours, 1.0 mM DAHMI at 37° C. for 20 minutes, nuclei stained with TOTO-3. The procedure:
(§1) The tetraboronic acid compound prepared by the preparation method is subjected to a biological experimental test for further discussing the application of the tetraboronic acid compound as a potential drug of the BNCT. Since the BNCT is mainly used for a head and neck cancer, the experiments are performed using osteosarcoma cell U2OS as a material.
(§2) By utilizing the characteristics that a fluorescence sensor (DAHMI) is stably bonded to boric acid, and a complex compound thereof can emit blue fluorescence, whether the tetraboronic acid compound enters cells or not is observed. The tetraboronic acid compound is firstly added to the osteosarcoma cells to act for 24 hours. Next, after the tetraboronic acid compound is washed away, the fluorescence sensor DAHMI is added and soaked for 20 minutes, and the cells are cleaned with phosphate buffered saline (PBS). Finally, the cell nuclei are stained with a TOTO™-3 dye or the mitochondria are stained with a Mito tracker Green FM dye, and the cells are observed under a fluorescence microscope (Model: Leica DM2500 & DM2500 LED Optical microscopes), and the results are shown in FIG. 2.
Referring to FIG. 2, FIG. 2 is a cell fluorescence micrograph of a tetraboronic acid compound entering osteosarcoma cells according to one embodiment of the present invention. […]

The subject of assay [2] is osteosarcoma cell U2OS. The assay is described as follows: Flow cytometry of DAHMI fluorescence content (boron compound content in cells). The note with it: for Fluorescence content relative to the clinical drug boronophenylalanine: 2.0 mM, ratio to BPA; for Fluorescence content: boron compound 2.0 mM, DAHMI sensor, flow cytometer. How it is done:
as §1
The content of the boron atoms in the osteosarcoma cells is further analyzed, and the fluorescence sensor DAHMI in the cells is excited by a flow cytometer (Model: Thermo Fisher Scientific Attune™ NxT Flow Cytometer) to detect the fluorescence content, thereby analyzing the content of the boron compound bonded to the fluorescence sensor DAHMI. After the osteosarcoma cells are treated with the clinical drug boronophenylalanine (BPA), B3 and B9 respectively, the fluorescence content is detected by the flow cytometer.
On the technique in general: Flow cytometry measures light scatter and fluorescence of single cells or particles in a stream.

Assay [3] has as its system osteosarcoma cell U2OS. Put plainly: Fluorescence microscopy with DAHMI sensor: accumulation in mitochondria versus BPA. The note with it: osteosarcoma cells, mitochondria stained with Mito tracker Green FM. The procedure:
as §1, §2
Referring to FIG. 3, FIG. 3 is a cell fluorescence micrograph of a tetraboronic acid compound and a clinical drug boronophenylalanine (BPA) according to one embodiment of the present invention.

Turning to `O=C(NCc1ccc(B(O)O)cc1F)C(c1cc(B(O)O)ccc1F)N(C(=O)c1ccc(B(O)O)cc1F)c1ccc(B(O)O)cc1` (centres unmarked) [Example B9], the “Entry into the cell nucleus (blue DAHMI fluorescence brightness, FIG. 2)” value with osteosarcoma cell U2OS [1] is recorded as “enter the cell nucleus more easily than other compounds”. In addition, in the assay on osteosarcoma cell U2OS [2], the “Fluorescence content relative to the clinical drug boronophenylalanine” value came out at 1.44 times and the Fluorescence content amounted to 3568 A.u. For the same compound, the “Accumulation in the mitochondria (DAHMI fluorescence brightness level compared with BPA, FIG. 3)” value in the assay on osteosarcoma cell U2OS [3] is recorded as “more capable of accumulating in the mitochondria than clinical BPA”.

Turning to `O=C(NCc1ccc(B(O)O)cc1)C(c1cccc(B(O)O)c1)N(C(=O)c1ccc(B(O)O)cc1)c1ccc(B(O)O)cc1` (centres unmarked) [Example B3], the “Entry into the cell nucleus (blue DAHMI fluorescence brightness, FIG. 2)” value with osteosarcoma cell U2OS [1] was “enter the cell nucleus more easily than other compounds”. In the assay on osteosarcoma cell U2OS [2], the “Fluorescence content relative to the clinical drug boronophenylalanine” value was found to be 1.95 times and the Fluorescence content is listed as 4831 A.u. Also, the “Accumulation in the mitochondria (DAHMI fluorescence brightness level compared with BPA, FIG. 3)” value in the assay on osteosarcoma cell U2OS [3] is “more capable of accumulating in the mitochondria than clinical BPA”.
